Measured values taken from patent US8741834B2, “Dipeptoid prodrugs and the use thereof” (Bayer Intellectual Property GmbH, priority 2008, dated 2014).
Counter-ions that a name gives are not always drawn.

Legend:
[1] = Determination of the solubility in 5% strength aqueous dextrose solution; type: physicochemical; conditions: saline or isotonic, thermodynamic from solid, room temperature
Protocol: The test substance is suspended in 5% strength aqueous dextrose solution. This suspension is shaken at room temperature for 24 h. After ultracentrifugation at 224 000 g for 30 min, the supernatant is diluted with DMSO and analysed by HPLC. A two-point calibration plot of the test compound in DMSO is used for quantification.
Agilent 1100 with DAD (G1315A), quat. Pump (G1311A), autosampler CTC HTS PAL, degasser (G1322A) and column thermostat (G1316A); column: Phenomenex Gemini C18, 5 μm, 50 mm×2 mm; temperature: 40° C.; eluent A: water/phosphoric acid pH 2, eluent B: acetonitrile; flow rate: 0.7 ml/min; gradient: 0-0.5 min 85% A, 15% B; ramp 0.5-3 min 10% A, 90% B; 3-3.5 min 10% A, 90% B; ramp 3.5-4 min 85% A, 15% B; 4-5 min 85% A, 15% B.
Agilent 1100 with DAD (G1315A), quat. pump (G1311A), autosampler CTC HTS PAL, degasser (G1322A) and column thermostat (G1316A); column: VDSoptilab Kromasil 100 C18, 3.5 μm, 60 mm×2.1 mm; temperature: 30° C.; eluent A: water+5 ml of perchloric acid/liter, eluent B: acetonitrile; flow rate: 0.75 ml/min; gradient: 0-0.5 min 98% A, 2% B; ramp 0.5-4.5 min 10% A, 90% B; 4.5-6 min 10% A, 90% B; ramp 6.5-6.7 min 98% A, 2% B; 6.7-7.5 min 98% A, 2% B.

[2] = Stability in buffer at various pH values; type: physicochemical
Protocol: 0.3 mg of the test substance is weighed into a 2 ml HPLC vial and 0.5 ml of acetonitrile or acetonitrile/DMSO (9:1) is added. The substance is dissolved by putting the sample vessel in an ultrasonic bath for about 10 seconds. Then 0.5 ml of the respective buffer solution is added, and the sample is again treated in the ultrasonic bath.
pH 2: 0.03 mol of citric acid, 0.061 mol of sodium chloride and 0.0082 mol of hydrochoric acid ad 1 liter of water;
pH 4: 1 liter of Millipore water is adjusted to pH 4.0 with 1 N hydrochloric acid;
pH 5: 0.096 mol of citric acid and 0.2 mol of sodium hydroxide ad 1 liter of water;
pH 6: 0.06 mol of citric acid and 0.16 mol of sodium hydroxide ad 1 liter of water;
pH 7.4: 90.0 g of sodium chloride, 13.61 g of potassium dihydrogen phosphate and 83.35 g of 1 N sodium hydroxide solution are made up to 1 liter with water; this solution is then further diluted 1:10 with Millipore water.
pH 8: 0.013 mol of borax and 0.021 mol of hydrochloric acid ad 1 liter of water.
5 μl portions of the test solution are analyzed by HPLC for their content of unchanged test substance, and of active substance (A) formed, every hour over a period of 24 hours at 37° C. The percentage areas of the appropriate peaks are used for quantification.
The ratios of the peak areas (F) at the respective time points in relation to the peak areas at the starting time are shown in Table 2 for representative exemplary embodiments: […]

[3] = Oral pharmacokinetics in Wistar rats; type: in vivo; conditions: after oral administration
Protocol: (§1) On the day before administration of the substance, a catheter for obtaining blood is implanted in the jugular vein of the experimental animals (male Wistar rats, body weight 200-250 g) under Isofluran® anesthesia.
(§2) On the day of the experiment, a defined dose of the test substance is administered as solution into the stomach by gavage. Blood samples (8-12 time points) are taken through the catheter sequentially over the course of 24 h after administration of the substance. Plasma is obtained by centrifuging the samples in heparinized tubes. Acetonitrile is added to a defined plasma volume per time point to precipitate proteins. After centrifugation, test substance and, where appropriate, known cleavage products of the test substance in the supernatant are determined quantitatively using a suitable LC/MS-MS method.
The measured plasma concentrations are used to calculate pharmacokinetic parameters of the test substance and of the active ingredient compound (A) liberated therefrom, such as AUC, Cmax, T1/2 (half-life).

[4] = test system: spontaneously hypertensive (SH rats); experiment: Blood pressure and heart rate measurements on awake rats; type: in vivo, rat; conditions: per oral administration of 3 mg/kg
Protocol: Awake rats which are spontaneously hypertensive (SH rats) and which carry an internal transmitter capable of continual measurement both of blood pressure and also heart rate (telemetric capture of hemodynamic parameters) are administered test substances orally in various doses. Subsequently, blood pressure and heart rate, and their changes, are recorded over 24 hours.

[5] = i.v. pharmacokinetics in Wistar rats; type: in vivo; conditions: after i.v. administration
Protocol: as §1
as §2, with “tail vein using a Hamilton® glass syringe (bolus administration, duration of administration <10 s).” for “stomach by gavage.”
The measured plasma concentrations are used to calculate pharmacokinetic parameters of the test substance and of the active ingredient compound (A) liberated therefrom, such as AUC, Cmax, T1/2 (half-life) and CL (clearance).**

Structure (SMILES) | solubility thermodynamic at 24 h [1] [µg/mL] | % test substance after 4 h [F(t = 4 h) × 100/F(t = 0 h)] ([2]; pH 4, 37° C.) [%] | % test substance after 24 h [F(t = 24 h) × 100/F(t = 0 h)] ([2]; pH 4, 37° C.) [%] | % test substance after 4 h [F(t = 4 h) × 100/F(t = 0 h)] ([2]; pH 7.4, 37° C.) [%] | % test substance after 24 h [F(t = 24 h) × 100/F(t = 0 h)] ([2]; pH 7.4, 37° C.) [%] | detectability of the test substance in plasma [3] | % test substance after 4 h [F(t = 4 h) × 100/F(t = 0 h)] ([2]; pH 5, 37° C.) [%] | % test substance after 24 h [F(t = 24 h) × 100/F(t = 0 h)] ([2]; pH 5, 37° C.) [%] | solubility at 24 h ([1]; 5% aqueous dextrose solution) [µg/mL] | Heart rate reduction (maximum lowering of heart rate) [4] [%] | % test substance after 4 h [F(t = 4 h) × 100/F(t = 0 h)] ([2]; pH 6, 37° C.) [%] | % test substance after 24 h [F(t = 24 h) × 100/F(t = 0 h)] ([2]; pH 6, 37° C.) [%] | detectability of the test substance in plasma [5]
CC[C@H](C)[C@H](N)C(=O)N[C@@H](C)C(=O)OC[C@H](COc1ccc(-c2c(C#N)c(N)nc(SCc3coc(-c4ccc(Cl)cc4)n3)c2C#N)cc1)OC(=O)[C@H](C)NC(=O)[C@@H](N)[C@@H](C)CC [Example 2, (2S)-3-{4-[2-Amino-6-({[2-(4-chlorophenyl)-1,3-oxazol-4-yl]methyl}sulfanyl)-3,5-dicyanopyridin-4-yl]phenoxy}propane-1,2-diyl (2S,2′S)-bis(2-{[(2S,3S)-2-amino-3-methylpentanoyl]amino}propanoate)dihydrochloride] | 670 | 100 | 100 | 100 | 68 | no longer detectable in plasma even at the first measurement point |  |  |  |  |  |  | 
C[C@H](NC(=O)[C@@H]1CCCN1)C(=O)OC[C@H](COc1ccc(-c2c(C#N)c(N)nc(SCc3coc(-c4ccc(Cl)cc4)n3)c2C#N)cc1)OC(=O)[C@H](C)NC(=O)[C@@H]1CCCN1 [Example 8, (2S)-3-{4-[2-Amino-6-({[2-(4-chlorophenyl)-1,3-oxazol-4-yl]methyl}sulfanyl)-3,5-dicyanopyridin-4-yl]phenoxy}propane-1,2-diyl (2S,2′S)-bis(2-{[(2S)-pyrrolidin-2-ylcarbonyl]amino}propanoate)bis(trifluoroacetic acid) salt] |  | 100 | 100 | 82 | 34 | no longer detectable in plasma even at the first measurement point |  |  |  |  |  |  | 
C[C@H](NC(=O)CN)C(=O)OC[C@H](COc1ccc(-c2c(C#N)c(N)nc(SCc3coc(-c4ccc(Cl)cc4)n3)c2C#N)cc1)OC(=O)[C@H](C)NC(=O)CN [Example 7, (2S)-3-{4-[2-Amino-6-({[2-(4-chlorophenyl)-1,3-oxazol-4-yl]methyl}sulfanyl)-3,5-dicyanopyridin-4-yl]phenoxy}propane-1,2-diyl (2S,2′S)-bis{2-[(aminoacetyl)amino]propanoate}dihydrochloride] |  | 100 | 100 | 0 | 0 | no longer detectable in plasma even at the first measurement point | 98 | 83 |  |  |  |  | 
N#Cc1c(N)nc(SCc2coc(-c3ccc(Cl)cc3)n2)c(C#N)c1-c1ccc(OC[C@H](O)CO)cc1 [Example 8A, 2-Amino-6-({[2-(4-chlorophenyl)-1,3-oxazol-4-yl]methyl}sulfanyl)-4-(4-{[(2R)-2,3-dihydroxypropyl]oxy}phenyl)pyridine-3,5-dicarbonitrile] |  |  |  |  |  |  |  |  | < 1.2 | 10 |  |  | 
C[C@H](NC(=O)CCN)C(=O)OC[C@H](COc1ccc(-c2c(C#N)c(N)nc(SCc3coc(-c4ccc(Cl)cc4)n3)c2C#N)cc1)OC(=O)[C@H](C)NC(=O)CCN [Example 32, (2S)-3-{4-[2-Amino-6-({[2-(4-chlorophenyl)-1,3-oxazol-4-yl]methyl}sulfanyl)-3,5-dicyanopyridin-4-yl]phenoxy}propane-1,2-diyl (2S,2′S)-bis{2-[(3-aminopropanoyl)amino]propanoate}dihydrochloride] |  | 100 | 100 | 96 | 81 |  | 100 | 100 |  | 10 | 99 | 98 | no longer detectable in plasma even at the first measurement point
C[C@H](N)C(=O)N[C@@H](C)C(=O)OC[C@H](COc1ccc(-c2c(C#N)c(N)nc(SCc3coc(-c4ccc(Cl)cc4)n3)c2C#N)cc1)OC(=O)[C@H](C)NC(=O)[C@H](C)N [Example 33, (2S)-3-{4-[2-Amino-6-({[2-(4-chlorophenyl)-1,3-oxazol-4-yl]methyl}sulfanyl)-3,5-dicyanopyridin-4-yl]phenoxy}propane-1,2-diyl(2S,2′S)-bis(2-{[(2S)-2-aminopropanoyl]amino}propanoate)dihydrochloride] | 620 | 100 | 100 | 29 | 0 | no longer detectable in plasma even at the first measurement point | 100 | 97 |  | 10 | 78 | 28 | no longer detectable in plasma even at the first measurement point
